Data reported in ChEMBL document CHEMBL1128100, “Synthesis and evaluation of novel daunomycin-phosphate-sulfate --glucuronide and --glucoside prodrugs for application in adept” (Bioorg Med Chem Lett, 1995).
Counter-ions that a name gives are not always drawn.

Tests used:
beta-glucuronidase = experiment: Compound was tested for enzyme activation with 0.03 U/mL beta-glucuronidase by measuring its half-life; settings: beta-glucuronidase (isolated enzyme)
EVSA-T = experiment: Antiproliferative activity of compound was tested against mammary carcinoma (EVSAT) human tumor cells; assay type: functional, cell-based
IGROV-1 = experiment: Antiproliferative activity of compound was tested against ovarian carcinoma (IGROV) human tumor cells; assay type: functional, cell-based
M19-MEL = experiment: Antiproliferative activity of compound was tested against melanoma (M-19) human tumor cells; assay type: functional, cell-based
MCF7 = experiment: Antiproliferative activity of compound was tested against mammary carcinoma (MCF-7) human tumor cells; assay type: functional, cell-based
A498 = experiment: Antiproliferative activity of compound was tested against renal cancer (A-498) human tumor cells; assay type: functional, cell-based
beta-glucosidase = experiment: Compound was tested for enzyme activation with 0.3 U/mL beta-glucosidase by measuring its half-life; settings: beta-glucosidase (isolated enzyme)
WiDr = experiment: Antiproliferative activity of compound was tested against colon carcinoma (WiDr) human tumor cells; assay type: functional, cell-based
A204 = experiment: Antiproliferative activity of compound was tested against rhabdomyosarcoma (A-204) human tumor cells; assay type: functional, cell-based
IGR-37 cell line = experiment: Antiproliferative activity of compound was tested against melanoma (IgR-37) human tumor cells; assay type: functional, cell-based
T-24 = experiment: Antiproliferative activity of compound was tested against bladder carcinoma (T-24) human tumor cells; assay type: functional, cell-based

Structure (SMILES) | IC50 (A204) [µM] | IC50 (IGR-37 cell line) [µM] | IC50 (MCF7; Homo sapiens, MCF7) [µM] | IC50 (T-24) [µM] | IC50 (WiDr; Homo sapiens, WiDr) [µM] | further results
COc1cccc2c1C(=O)c1c(O)c3c(c(O)c1C2=O)C[C@@](O)(C(C)=O)C[C@@H]3O[C@H]1C[C@@H](NC(=O)O[C@@H]2O[C@@H](C(=O)[O-])[C@@H](O)[C@H](O)[C@@H]2O)[C@H](O)[C@H](C)O1.[Na+] |  |  |  |  |  | half-life (beta-glucuronidase): 137 h; IC50 (EVSA-T; evsa-t): 13500 µM; IC50 (IGROV-1; igrov-1): 36900 µM; IC50 (M19-MEL; m19-mel): 15800 µM; IC50 (MCF7; mcf7): 11200 µM; IC50 (A498; a498): 12100 µM
COc1cccc2c1C(=O)c1c(O)c3c(c(O)c1C2=O)C[C@@](O)(C(C)=O)C[C@@H]3O[C@H]1C[C@@H](NC(=O)O[C@@H]2O[C@@H](C(=O)O)[C@@H](O)[C@H](O)[C@@H]2O)[C@H](O)[C@H](C)O1 |  |  |  |  |  | half-life (beta-glucosidase): > 133 h; IC50 (EVSA-T; evsa-t): 280 µM; IC50 (IGROV-1; igrov-1): 520 µM; IC50 (M19-MEL; m19-mel): 200 µM; IC50 (MCF7; mcf7): 125 µM; IC50 (WiDr; widr): 370 µM; IC50 (A498; a498): 250 µM
COc1cccc2c1C(=O)c1c(O)c3c(c(O)c1C2=O)C[C@@](O)(C(C)=O)C[C@@H]3O[C@H]1C[C@@H](N)[C@H](OS(=O)(=O)O)[C@H](C)O1 | 1.3 | 3000 | 870 | 5500 |  | 
COc1cccc2c1C(=O)c1c(O)c3c(c(O)c1C2=O)C[C@@](O)(C(C)=O)C[C@@H]3O[C@H]1C[C@@H](NS(=O)(=O)O)[C@H](O)[C@H](C)O1 | 4.9 |  | 10400 |  |  | 
COc1cccc2c1C(=O)c1c(O)c3c(c(O)c1C2=O)C[C@@](O)(C(C)=O)C[C@@H]3O[C@H]1C[C@@H](NP(=O)(O)O)[C@H](O)[C@H](C)O1 | 17 | 96 | 370 | 2 | 10 | 
COc1cccc2c1C(=O)c1c(O)c3c(c(O)c1C2=O)C[C@@](O)(C(C)=O)C[C@@H]3O[C@H]1C[C@@H](N)[C@H](OP(=O)(O)O)[C@H](C)O1 | 17 | 45 | 89 | 3 | 58 | 
COc1cccc2c1C(=O)c1c(O)c3c(c(O)c1C2=O)C[C@@](O)(C(C)=O)C[C@@H]3O[C@H]1C[C@H](N)[C@H](O)[C@H](C)O1 [DAUNORUBICIN HYDROCHLORIDE] | 3 | 11 | 2 | 2 | 7 | IC50 (EVSA-T; Homo sapiens, EVSA-T): 2 µM; IC50 (IGROV-1; Homo sapiens, IGROV-1): 18 µM; IC50 (M19-MEL; Homo sapiens, M19-MEL): 2 µM; IC50 (A498; Homo sapiens, A498): 3 µM
